Assay results from patent US4880007A, “Contrast agent for NMR scanning” (Amersham International PLC, priority 1985, dated 1989).

What was measured:
[1] = Binding of ligands to hydroxy apatite, ^31 P NMR study
Description: (§1) 1 ml of hydroxy apatite solution 250 mg/ml in water was used for all the binding assays to described.
The solid from 1 ml of hydroxy apatite solution was isolated by centrifugation and the supernatant removed. 0.41 ml of a 0.1M solution of ligand at pH 7.5±0.1 were than added and the solid resuspended. The solid was once more spun down and the supernatant analysed by ^31 P NMR. This enabled the amount of bound phosphonate to be analysed.

[2] = Binding of chromium complexes to hydroxy apatite, by T1 relaxation measurement; conditions: 0.4 ml of 50 mM metal complex; HAP 250 mg/ml
Description: as §1
The procedure above was followed but this time 0.4 ml of 50 mM metal complex solution was added and the solid resuspended. The supernatant was analysed by T1 using T1 relaxation measurements and the amount bound to hydroxy apatite calculated.

[3] = ^153 Gd biodistribution, IV study in rats; assay type: in vivo, male rats; conditions: for effect of added Ca^2+ or dimethylglucamine on bone uptake: Ca^2+ and dimethylglucamine added separately to aqueous solutions; for Bladder & Urine / Blood / Bone / Carcass / Injection Site / Kidneys / Liver & Spleen / Lung / Muscle / Ratio Bone/Blood / Ratio Bone/Liver & Spleen / Ratio Bone/Muscle / Stomach & Gut / usefulness as bone scanning / bone-seeking agent: rat, IV, two hours post injection
Description: This example uses ^153 Gd to compare the biodistribution properties of various complexes in rats.
Using ^153 Gd, a comparison was made of certain properties of aqueous "solutions" of
The biodistribution data there reported were obtained by means of an IV study in male rats which were sacrified two hours post injection. % activity per organ is given, together with ratios of bone to organ.
It is known that Ca^2+ can bind to di- and poly-phosphonates, and that this is one reason why these materials are toxic. It is also known that dimethylglucamine can be used to solubilize complexes of this kind.

[4] = Solubility / precipitation of Gd complexes; assay type: physicochemical
Description: Equal volumes of 1 mM methylene diphosphonic acid and 0.5 mM Gd^3+ were used to prepare a complex designated Gd.MDP.
Equal volumes of 10 mM ethane-1-hydroxy-1,1-diphosphonic acid and 5 mM Gd^3+ were used to prepare a complex designated Gd.EHDP.

[5] = ligand 0.1M, 0.41 ml, pH 7.5±0.1, HAP 250 mg/ml, ^31 P NMR

O=P(O)(O)CN(CCO)CP(=O)(O)O [AEDMP, Amino ethanol dimethylene phosphonate]
% Bound to HAP [1, 5]: 50.9%

O=C(O)CCCCCN(CP(=O)(O)O)CP(=O)(O)O [AHADMP, 6-amino hexanoic acid dimethylene phosphonate]
% Bound to HAP [1, 5]: 89.7%

O=P(O)(O)CN(CCO)CP(=O)(O)O.O=P(O)(O)CN(CCO)CP(=O)(O)O.[Cr] [Cr(AEDMP)2]
% Bound [2]: 96%

O=C(O)CCCCCN(CP(=O)(O)O)CP(=O)(O)O.O=C(O)CCCCCN(CP(=O)(O)O)CP(=O)(O)O.[Cr] [Cr(AHADMP)2]
% Bound [2]: 96%

O=C(O)CCCN(CP(=O)(O)O)CP(=O)(O)O.O=C(O)CCCN(CP(=O)(O)O)CP(=O)(O)O.[Cr] [Cr(GABADMP)2]
% Bound [2]: 90%

O=C(O)CN(CP(=O)(O)O)CP(=O)(O)O.O=C(O)CN(CP(=O)(O)O)CP(=O)(O)O.[Cr] [Cr(GDMP)2]
% Bound [2]: 80%

O=P(O)(O)CN(Cc1cccc(CN(CP(=O)(O)O)CP(=O)(O)O)c1)CP(=O)(O)O.[Cr] [CrMXDTMP]
% Bound [2]: 96%

O=C(O)CCCN(CP(=O)(O)O)CP(=O)(O)O [GABADMP, Gamma amino butyric acid dimethylene phosphonate]
% Bound to HAP [1, 5]: 77.8%

O=C(O)CN(CP(=O)(O)O)CP(=O)(O)O [GDMP, Glycine dimethylene phosphonate]
% Bound to HAP ([1]; pH 7.5): 88.2%

O=P(O)(O)CN(CCN(CP(=O)(O)O)CP(=O)(O)O)CP(=O)(O)O.[Gd] [Gd.EDTMP]
effect of added Ca^2+ or dimethylglucamine on bone uptake [3]: neither addition had a significant effect | Bladder & Urine [3]: 45.8 % activity per organ | Blood [3]: 0.6 % activity per organ | Bone [3]: 45.2 % activity per organ | Carcass [3]: 3.5 % activity per organ | Injection Site [3]: 2.1 % activity per organ | Kidneys [3]: 0.4 % activity per organ | Liver & Spleen [3]: 1.4 % activity per organ | Lung [3]: 0.1 % activity per organ | Muscle [3]: 1.1 % activity per organ | Ratio Bone/Blood [3]: 173.0 | Ratio Bone/Liver & Spleen [3]: 35.2 | Ratio Bone/Muscle [3]: 491.2 | Stomach & Gut [3]: 1.9 % activity per organ | usefulness as bone scanning / bone-seeking agent [3]: good bone-seeking agent

CC(O)(P(=O)(O)O)P(=O)(O)O.[Gd] [Gd.EHDP]
effect of added Ca^2+ or dimethylglucamine on bone uptake [3]: neither addition had a significant effect | Bladder & Urine [3]: 24.0 % activity per organ | Blood [3]: 21.45 % activity per organ | Bone [3]: 22.64 % activity per organ | Carcass [3]: 0.01 % activity per organ | Injection Site [3]: 2.91 % activity per organ | Kidneys [3]: 1.05 % activity per organ | Liver & Spleen [3]: 11.29 % activity per organ | Lung [3]: 1.55 % activity per organ | Muscle [3]: 13.8 % activity per organ | Ratio Bone/Blood [3]: 1.24 | Ratio Bone/Liver & Spleen [3]: 2.04 | Ratio Bone/Muscle [3]: 14.07 | Stomach & Gut [3]: 4.21 % activity per organ | usefulness as bone scanning / bone-seeking agent [3]: not useful as bone scanning agents | pH needed to avoid precipitation ([4]; equal volumes 10 mM ligand and 5 mM Gd^3+): above 7

O=P(O)(O)CP(=O)(O)O.[Gd] [Gd.MDP]
Bladder & Urine [3]: 1.0 % activity per organ | Blood [3]: 0.1 % activity per organ | Bone [3]: 3.1 % activity per organ | Carcass [3]: 0.7 % activity per organ | Injection Site [3]: 0.5 % activity per organ | Kidneys [3]: 0.3 % activity per organ | Liver & Spleen [3]: 93.9 % activity per organ | Lung [3]: 0.4 % activity per organ | Muscle [3]: 0.3 % activity per organ | Ratio Bone/Blood [3]: 33.2 | Ratio Bone/Liver & Spleen [3]: 0.0 | Ratio Bone/Muscle [3]: 80 | Stomach & Gut [3]: 0.0 % activity per organ | usefulness as bone scanning / bone-seeking agent [3]: not useful as bone scanning agents | solubility ([4]; around physiological pH's): poor solubility properties

O=P(O)(O)CN(Cc1cccc(CN(CP(=O)(O)O)CP(=O)(O)O)c1)CP(=O)(O)O [MXDTMP, Meta-xylene diamine tetramethylene phosphonate]
% Bound to HAP [1, 5]: 84.1%

O=P(O)(O)CN(Cc1ccc(CN(CP(=O)(O)O)CP(=O)(O)O)cc1)CP(=O)(O)O [PXDTMP, Para-xylene diamine tetramethylene phosphonate]
% Bound to HAP [1, 5]: 88.0%

[153Gd+3].[Cl-].[Cl-].[Cl-] [^153 Gd.Cl3]
Bladder & Urine [3]: 12.5 % activity per organ | Blood [3]: 3.7 % activity per organ | Bone [3]: 38.6 % activity per organ | Carcass [3]: 1.8 % activity per organ | Injection Site [3]: 3.4 % activity per organ | Kidneys [3]: 2.5 % activity per organ | Liver & Spleen [3]: 32.5 % activity per organ | Lung [3]: 0.6 % activity per organ | Muscle [3]: 4.0 % activity per organ | Ratio Bone/Blood [3]: 12.2 | Ratio Bone/Liver & Spleen [3]: 1.1 | Ratio Bone/Muscle [3]: 83 | Stomach & Gut [3]: 3.9 % activity per organ
